pEC50: −log10 of the molar value.
Molecular target: T1, RORγ-LBD (Homo sapiens, UniProt P51449)
T1 construct: made in house; host or cells: SF9 cells (baculovirus)
T1 sequence (P51449 269-508 limits assumed): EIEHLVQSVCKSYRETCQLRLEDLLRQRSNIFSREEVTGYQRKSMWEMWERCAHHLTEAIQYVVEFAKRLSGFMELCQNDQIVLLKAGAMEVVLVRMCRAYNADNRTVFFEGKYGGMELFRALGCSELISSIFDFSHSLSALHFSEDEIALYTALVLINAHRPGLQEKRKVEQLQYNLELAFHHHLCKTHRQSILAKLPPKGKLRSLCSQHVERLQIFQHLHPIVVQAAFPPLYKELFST
Experiment: RORγ-Ligand Binding Domain (LBD) TR-FRET Assay;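 on TR-FRET Assay Max Response: 665/615 nm ratio relative to signal without ursolic acid or compound set at 100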
Assay type: biochemical
Procedure: Assay procedures and results are described below.
HIS-tagged RORγ-LBD protein was expressed in SF9 cells using a baculovirus expression system. The lysate was diluted in assay buffer (50 mM Tris pH 7.0, 50 mM KCl, 1 mM EDTA, 0.1 mM DTT, 0.01% BSA) to obtain RORγ-LBD final concentration of ˜3 nM in a 384-well assay plate (need to titrate for each batch of protein).
A stock of biotinylated-LXXLL peptide from coactivator SRC1 (Biotin-[…]) was prepared in assay buffer and added to each well (200 nM final concentration). […] RORγ antagonist ursolic acid was also included at a final concentration of 2 μM. Compounds were diluted in DMSO and further diluted in assay buffer with a final DMSO concentration at 1%.

pEC50	Structure (SMILES)	TR-FRET Assay Max Response
> 6.30	O=C(O)CC[C@H]1CN(S(=O)(=O)c2cccc(C(F)(F)F)c2)c2cc(-c3ccc(F)c(F)c3)ccc2O1 [Compound 2F, (S)-3-(6-(3,4-difluorophenyl)-4-((3-(trifluoromethyl)phenyl)-sulfonyl)-3,4-dihydro-2H-benzo[b][1,4]oxazin-2-yl)propanoic acid]	** (The symbol “**” indicates a value in the range of greater than 90 to 150)
5.30 to 6.30	CN(C)c1cc(C(F)(F)F)cc(-c2ccc3c(c2)N(S(=O)(=O)c2cccc(C(F)(F)F)c2)C[C@H](CCC(=O)O)O3)n1 [Compound 4AT, (S)-3-(6-(6-(dimethylamino)-4-(trifluoromethyl)pyridin-2-yl)-4-((3-(trifluoromethyl)phenyl)-sulfonyl)-3,4-dihydro-2H-benzo[b][1,4]oxazin-2-yl)propanoic acid]	*** (The symbol “***” indicates a value in the range of greater than 150 to 200)
> 6.30	CC(C)(C[C@@H]1CN(S(=O)(=O)c2cccc(C(F)(F)F)c2)c2cc(-c3cc(F)ccc3F)ccc2O1)NS(C)(=O)=O [Compound 30DF, (R)-N-(1-(6-(2,5-difluoro-phenyl)-4-((3-(trifluoromethyl)-phenyl)sulfonyl)-3,4-dihydro-2H-benzo[b][1,4]oxazin-2-yl)-2-methylpropan-2-yl)methane-sulfonamide]	*** (The symbol “***” indicates a value in the range of greater than 150 to 200)
> 6.30	C[C@H](C[C@H]1CN(S(=O)(=O)c2cccc(C(F)(F)F)c2)c2cc(-c3cc(F)cc(F)c3)ccc2O1)C(=O)O [Compound 46J, (R)-3-((S)-6-(3,5-difluorophenyl)-4-((3-(trifluoromethyl)phenyl)-sulfonyl)-3,4-dihydro-2H-benzo[b][1,4]oxazin-2-yl)-2-methylpropanoic acid]	*** (The symbol “***” indicates a value in the range of greater than 150 to 200)
> 6.30	O=C(O)CC[C@@H]1CN(S(=O)(=O)c2cccc(C(F)(F)F)c2)c2cc(-c3cc(F)ccc3F)ccc2O1 [Compound 2BP, (R)-3-(6-(2,5-difluorophenyl)-4-((3-(trifluoromethyl)phenyl)-sulfonyl)-3,4-dihydro-2H-benzo[b][1,4]oxazin-2-yl)propanoic acid]	*** (The symbol “***” indicates a value in the range of greater than 150 to 200)
> 6.30	CC(=O)NC1(C[C@H]2CN(S(=O)(=O)c3cccc(C(F)(F)F)c3)c3cc(-c4cc(F)ccc4F)ccc3O2)CCOCC1 [Compound 78J, (S)-N-(4-((6-(2,5-difluorophenyl)-4-((3-(trifluoromethyl)phenyl)-sulfonyl)-3,4-dihydro-2H-benzo[b][1,4]oxazin-2-yl)methyl)tetrahydro-2H-pyran-4 yl)acetamide]	*** (The symbol “***” indicates a value in the range of greater than 150 to 200)
> 6.30	N#CC1(C(=O)NC[C@H]2CN(S(=O)(=O)c3cccc(C(F)(F)F)c3)c3cc(-c4cccc(F)c4Cl)ccc3O2)CC1 [Compound 30BL, (S)-N-((6-(2-chloro-3-fluoro-phenyl)-4-((3-(trifluoromethyl)-phenyl)sulfonyl)-3,4-dihydro-2H-benzo[b][1,4]oxazin-2-yl)methyl)-1-cyanocyclo-propane-1-carboxamide]	*** (The symbol “***” indicates a value in the range of greater than 150 to 200)
> 6.30	O=C(O)CC[C@H]1CN(S(=O)(=O)c2cccc(C(F)(F)F)c2)c2cc(-c3ccc(Cl)cc3)ccc2O1 [Compound 2B, (S)-3-(6-(4-chlorophenyl)-4-((3-(trifluoromethyl)phenyl)-sulfonyl)-3,4-dihydro-2H-benzo[b][1,4]oxazin-2-yl)propanoic acid]	** (The symbol “**” indicates a value in the range of greater than 90 to 150)
> 6.30	O=C(O)C1(C[C@H]2CN(S(=O)(=O)c3cccc(C(F)(F)F)c3)c3cc(-c4cccc(C(F)(F)F)n4)ccc3O2)COC1 [Compound 51D, (S)-3-((4-((3-(trifluoromethyl)-phenyl)sulfonyl)-6-(6-(trifluoro-methyl)pyridin-2-yl)-3,4-dihydro-2H-benzo[b][1,4]oxazin-2-yl)methyl)oxetane-3-carboxylic acid]	*** (The symbol “***” indicates a value in the range of greater than 150 to 200)
5.30 to 6.30	CC(C)(C(=O)NC[C@H]1CN(S(=O)(=O)c2cccc(C(F)(F)F)c2)c2cc(-c3cccc(F)c3Cl)ccc2O1)C(F)(F)F [Compound 30BJ, (S)-N-((6-(2-chloro-3-fluoro-phenyl)-4-((3-(trifluoromethyl)-phenyl)sulfonyl)-3,4-dihydro-2H-benzo[b][1,4]oxazin-2-yl)methyl)-3,3,3-trifluoro-2,2-dimethylpropanamide]	*** (The symbol “***” indicates a value in the range of greater than 150 to 200)
> 6.30	CC(C)(C(=O)NC[C@H]1CN(S(=O)(=O)c2cccc(C(F)(F)F)c2)c2cc(-c3cc(F)cc(OC(F)F)c3)ccc2O1)C(F)(F)F [Compound 30CY, (S)-N-((6-(3-(difluoromethoxy)-5-fluorophenyl)-4-((3-(trifluoro-methyl)phenyl)sulfonyl)-3,4-dihydro-2H-benzo[b][1,4]-oxazin-2-yl)methyl)-3,3,3-trifluoro-2,2-dimethyl-propanamide]	** (The symbol “**” indicates a value in the range of greater than 90 to 150)

Continued, molecule first:

Structure (SMILES)	pEC50	TR-FRET Assay Max Response
O=C(O)[C@H]1C[C@@H]([C@H]2CN(S(=O)(=O)c3cccc(C(F)(F)F)c3)c3cc(-c4cc(F)cc(OC(F)F)c4)ccc3O2)C1 [Compound 60J, (1R,3s)-3-((S)-6-(3-(difluoro-methoxy)-5-fluorophenyl)-4-((3-(trifluoromethyl)phenyl)-sulfonyl)-3,4-dihydro-2H-benzo[b][1,4]-oxazin-2-yl)cyclobutane-1-carboxylic acid]	> 6.30	*** (The symbol “***” indicates a value in the range of greater than 150 to 200)
O=C(O)C1(C[C@@H]2CN(S(=O)(=O)c3cccc(C(F)(F)F)c3)c3cc(-c4cc(F)cc(F)c4)ccc3O2)CCC1 [Compound 32AP, (R)-1-((6-(3,5-difluorophenyl)-4-((3-(trifluoromethyl)phenyl)-sulfonyl)-3,4-dihydro-2H-benzo[b][1,4]oxazin-2-yl)methyl)cyclobutane-1-carboxylic acid]	> 6.30	** (The symbol “**” indicates a value in the range of greater than 90 to 150)
C[C@@H](C[C@H]1CN(S(=O)(=O)c2cccc(C(F)(F)F)c2)c2cc(-c3cc(Cl)cc(OC(F)F)c3)ccc2O1)C(=O)O [Compound 46R, (S)-3-((S)-6-(3-chloro-5-(difluoromethoxy)phenyl)-4-((3-(trifluoromethyl)phenyl)sulfonyl)-3,4-dihydro-2H-benzo[b][1,4]-oxazin-2-yl)-2-methylpropanoic acid]	> 6.30	*** (The symbol “***” indicates a value in the range of greater than 150 to 200)
O=C(NCC[C@H]1CN(S(=O)(=O)c2cccc(C(F)(F)F)c2)c2cc(-c3cc(F)ccc3F)ccc2O1)NC[C@H](O)C(=O)O [Compound 23Z, (S)-3-(3-(2-((S)-6-(2,5-difluorophenyl)-4-((3-(trifluoro-methyl)phenyl)sulfonyl)-3,4-dihydro-2H-benzo[b][1,4]oxazin-2-yl)ethyl)ureido)-2-hydroxypropanoic acid]	> 6.30	**** (The symbol “****” indicates a value greater than 200)
O=C(O)CC[C@H]1CN(S(=O)(=O)c2cccc(C(F)(F)F)c2)c2cc(-c3cccc(-c4ccccc4)n3)ccc2O1 [Compound 4AI, (S)-3-(6-(6-phenylpyridin-2-yl)-4-((3-(trifluoromethyl)-phenyl)sulfonyl)-3,4-dihydro-2H-benzo[b][1,4]oxazin-2-yl)propanoic acid]	> 6.30	** (The symbol “**” indicates a value in the range of greater than 90 to 150)
O=C1CC[C@@](C[C@H]2CN(S(=O)(=O)c3cccc(C(F)(F)F)c3)c3cc(-c4cc(F)cc(OC(F)F)c4)ccc3O2)(C(=O)O)N1 [Compound 77C, (R)-2-(((S)-6-(3-(difluoro-methoxy)-5-fluorophenyl)-4-((3-(trifluoromethyl)phenyl)sulfonyl)-3,4-dihydro-2H-benzo[b][1,4]-oxazin-2-yl)methyl)-5-oxopyrrolidine-2-carboxylic acid]	> 6.30	** (The symbol “**” indicates a value in the range of greater than 90 to 150)
O=C(O)[C@H]1C[C@@H]([C@H]2CN(S(=O)(=O)c3cccc(C(F)(F)F)c3)c3cc(-c4cccc(C(F)(F)F)n4)ccc3O2)C1 [Compound 71, (1R,3s)-3-((S)-4-((3-(trifluoromethyl)phenyl)sulfonyl)-6-(6-(trifluoromethyl)pyridin-2-yl)-3,4-dihydro-2H-benzo[b][1,4]oxazin-2-yl)cyclobutane-1-carboxylic acid]	> 6.30	*** (The symbol “***” indicates a value in the range of greater than 150 to 200)

From patent US10611740B2, “Aryl dihydro-2H-benzo[b][1,4]oxazine sulfonamide and related compounds for use as agonists of RORγ and the treatment of disease” (Lycera Corporation, priority 2015, dated 2020)
